Experiments:
[1] = test system: platelet rich plasma (PRP); assay: Inhibitory effect on platelet aggregation in rabbit; type: cell-based; conditions: Oryctolagus cuniculus, aggregation agent arachidonic acid, pre-incubated for 3 minutes, invention compound n = 1 - 3, aspirin n = 7, read-out: Rabbit antiplatelet aggregation effect IC50
Procedure: Male JW/CSK rabbits weighing 2.6 to 3.1 kg were anesthetized with thiopental (20 mg/kg). Then the blood of each animal was collected from the left carotid artery into a container containing a 3.8% solution of citric acid (9 : 1 v/v). The collected blood was immediately centrifuged at room temperature at 1,300 rpm (230 G) for 10 minutes to give a platelet rich plasma (PRP). Further, a required amount of the blood was centrifuged at 3,000 rpm (1,300 G) for 15 minutes to give a platelet poor plasma (PPP). The PRP to be used in the platelet aggregation test was diluted with PPP to adjust the platelet count to 3 x 10^8. The aggregability was measured by using a platelet aggregation measuring device (TE-500, ERMA) with the use of arachidonic acid ([…]) as an aggregation agent. Each test compound was mixed with PRP and pre-incubated for 3 minutes. Next, the aggregation agent was added thereto and the aggregability was measured for 5 minutes. Thus, the activity of the test compound was evaluated by determining the 50% inhibitory concentration (IC50; µM) thereof to the maximum aggregation induced by the arachidonic acid. As the test compounds, the compounds of the present invention obtained in the above Examples were employed. As a control drug, use was made of aspirin which has been widely known as a platelet aggregation inhinitor. Table E summarizes the results. Table E

rat A-V shunt model = assay: Effect on blood coagulability in rat A-V shunt model; type: in vivo; conditions: 10 mg/kg p.o.; from 75 minutes to 2 hours after administration; mean ± S.E. (n = 6)
Procedure: Rat A-V shunts models were prepared by reference to the method of Umezu et al. (Thrombos Haemostas. 1978:39:74 - 83). Male SD rats were anesthetized with sodium pentobarbital (50 mg/kg, i.p.) and fixed in the supine position. A thick polyethylene tube (6 cm; Hibiki No. 7, Kunii Co.) containing a silk suture thread was connected at both ends to another thin polyethylene tube (10 cm, Hibiki No. 4, Kunii Co.) and then inserted into the left common carotid artery and the right internal jugular vein of the rat so as to form an external blood circulation system (A-V Shunt). The blood was circulated within the shunt system for 15 minutes and then the blood coagulates adhering to the silk suture thread in the thick tube was weighed. After repeating this operation thrice, the total weight was determined and the activity of each test compound was evaluated based thereon.
In this experiment, the anti-aggregation effects achieved from 75 minutes to 2 hours after the peroral administration were examined in a vehicle group (0.3% carboxymethyl cellulose, hereinafter referred to simply as CMC; n = 6), a group of the compound of Example 2 (10 mg/kg; n = 6) and a group of FK-409 (10 mg/kg; n = 6) which had been reported as being capable of inhibiting the formation of blood coagulates (European Journal of Pharmacology, 1995:272:39 - 43). Table F summarizes the results. Table F […]

| Structure (SMILES) | IC50 [1] [µM] | Blood coagulability in rat A-V shunt model p.o. administration; wt. (mg) of coagulates (rat A-V shunt model) [mg] |
| --- | --- | --- |
| C[C@H](CSC(=O)c1ccccc1)C(=O)[N-]c1c[n+](N2CCN(C)CC2)no1 [Example 2, N-((S)-3-(Benzoylthio)isobutyryl)-3-(4-methylpiperazin-1-yl)sydnonimine] | 15.8 | – |
| CN1CCN([n+]2cc([N-]C(=O)CSC(=O)c3ccccc3)on2)CC1 [Example 3, N-((Benzoylthio)acetyl)-3-(4-methylpiperazin-1-yl)sydnonimine] | 2.7 | – |
| CCN1CCN([n+]2cc([N-]C(=O)[C@H](C)CSC(=O)c3ccccc3)on2)CC1 [Example 68, N-((S)-3-(Benzoylthio)isobutyryl)-3-(4-ethylpiperazin-1-yl)sydnonimine] | 10.5 | – |
| CC(=O)SCC(=O)[N-]c1c[n+](N2CCN(C(C)C)CC2)no1 [Example 86, N-(Acetylthioacetyl)-3-(4-isopropylpiperazin-1-yl)sydnonimine] | 1.3 | – |
| CC(C)N1CCN([n+]2cc([N-]C(=O)CSC(=O)c3ccccc3)on2)CC1 [Example 88, N-(Benzoylthioacetyl)-3-(4-isopropylpiperazin-1-yl)sydnonimine] | 1.1 | – |
| CN1CCN([n+]2cc([N-]C(=O)CCSC(=O)c3ccc(F)cc3)on2)CC1 [Example 135, N-(3-(4-Fluorobenzoylthio)propionyl)-3-(4-methylpiperazin-1-yl)sydnonimine] | 12.9 | – |
| COc1ccc(C(=O)SCCC(=O)[N-]c2c[n+](N3CCN(C)CC3)no2)cc1 [Example 139, N-(3-(4-Methoxybenzoylthio)propionyl)-3-(4-methylpiperazin-1-yl)sydnonimine] | 15.8 | – |
| CCN1CCN([n+]2cc([N-]C(=O)CSC(=O)C3(C)CCc4c(C)c(O)c(C)c(C)c4O3)on2)CC1 (stereo not shown) [Example 192, N-((6-Hydroxy-2,5,7,8-tetramethylchroman-2-carbonylthio)acetyl)-3-(4-ethylpiperazin-1-yl)sydnonimine] | 3.9 | – |
| CC/C(=C\C(=N/O)C(N)=O)C(C)[N+](=O)[O-] (stereo not shown) [FK409] | – | 89.17 ± 8.43 |
| CC(=O)Oc1ccccc1C(=O)O [aspirin, reference compound] | 27.5 | – |
